Here are results for 14 compounds from US11548903B2, “Bicyclic thiazine and oxazine derivatives as beta-secretase inhibitors and methods of use” (AMGEN INC., priority 2016, dated 2023).

Assay [1] concerns BACE1 (Aβ40 from cells stably expressing Amyloid Precursor Protein). Nature of the assay: In vitro BACE1 cell-based assay (Aβ40 in conditioned medium, HTRF). On the procedure: In Vitro BACE1 Cell-Based Assay The cell-based assay measures inhibition or reduction of Aβ40 in conditioned medium of test compound treated cells expressing amyloid precursor protein. Cells stably expressing Amyloid Precursor Protein (APP) were plated at a density of 45K cells/well in 384 well plates (Corning/BioCoat 354663). The test compounds were then added to cells in 22-point dose response concentrations with the starting concentration being 62.5 μM. The compounds were diluted from stock solutions in DMSO and the final DMSO concentration of the test compounds on cells was 0.625%. The cells were cultivated overnight at 37° C. and 5% CO2 in DMEM supplemented with 10% FBS. After 24 h of incubation with the test compounds, the conditioned media was collected and the Aβ40 levels were determined using HTRF (Homogeneous Time Resolved Fluorescence). […] The HTRF to detect Aβ40 was performed in 384 well plates (Costar 3658). The antibody pair that were used to detect Aβ 40 from cell supernatants were ConfAb40 antibody (Amgen in-house) and biotinylated 6E10 (BIOLEGEND). As an alternative to ConfAb40, a commercially available antibody, Anti-beta Amyloid 1-40 antibody [BDI350] from Abcam, Cambridge, Mass. 02139-1517 (Product code: ab20068), may be used in this assay. […] The conditioned media was incubated with above antibodies and Streptavidin Allophycocyanin Conjugate for 30-60 minutes at 23° C. The final readout was performed on Envision from PerkinElmer.
(Time-resolved FRET reads energy transfer from a long-lived donor to a nearby acceptor.)

For a further assay, the target named is human recombinant BACE1 (Homo sapiens (Human), UniProt P56817). In words: In vitro enzymatic BACE1 FRET assay. To be noted: read-out: BACE1 Enzyme IC50. The format is biochemical. On the procedure:
(§1) In Vitro Enzymatic BACE1 and BACE2 FRET (Fluorescence Resonance Energy Transfer) Assays […] These recombinant proteins were further purified using Ni-NTA affinity chromatography (Qiagen). […] The assay was effectively started by the addition of FRET substrate (50 nM) and the combination was incubated for one hour. The FRET assay was terminated by the addition of tris buffer, which raised the pH to neutrality, and the fluorescence was determined. The FRET substrate was a peptide with commercially available fluorophore and quencher, on opposite sides of the BACE cleavage site. The specific FRET substrate used in this assay was made by Amgen in-house. Commercially available FRET substrates, for example, the FRET substrate offered with the BACE1 FRET Assay Kit sold by ThermoFisher Scientific (Catalog Number P2985), may be used in this assay with the appropriate modifications, which are within the purview of the ability of a person with ordinary skill in the art. Proteolytic cleavage of the FRET substrate released quenching of fluorescence (excitation 488 nm and emission 590 nm).

For the next assay, the target named is Recombinant CatD (Homo sapiens (Human), UniProt P07339). In words: In vitro enzymatic Cathepsin D (CatD) FRET assay. As to conditions: read-out: Cat D Enzyme IC50. In kind it is biochemical. On the procedure:
In Vitro Enzymatic Cathepsin D (CatD) FRET Assay Recombinant CatD was expressed in CHO cells. The assay buffer for CatD was 0.05 M citrate pH 3.5, 10% DMSO final, 5 mM CHAPS. […] The assays was effectively started by the addition of different FRET substrates (20 nM for CatD) and the combination was incubated for one hour. The FRET assay was terminated with by addition of tris buffer, which raises the pH to neutrality, and the fluorescence was determined. The FRET substrate was a peptide with commercially available fluorophore and quencher, on opposite sides of the CatD cleavage site. The CatD substrate peptide sequence was based on sequence #1 of Table 1 from Gulnik et al., FEBS Lett. 413(2):379-384 (1997). Proteolytic cleavage of the FRET substrate released quenching of fluorescence (CatD excitation 500 nm and emission 580 nm). The in vitro CatD FRET assay data for each of the Examples is provided in Table 2, conducted by the first procedure described above. […] Thus, with this surprising selectivity profile, the compounds provided herein are believed to minimize, reduce or completely eliminate any risk of retinal atrophy and abnormal development of the eye and of the retinal pigmented epithelium as it relates to the normal function and activity of CatD.

Another assay concerns the target human recombinant BACE2 (Homo sapiens (Human), UniProt Q9Y5Z0). In words: In vitro enzymatic BACE2 FRET assay. The format is biochemical. As to conditions: read-out: BACE2 Enzyme IC50. On the procedure:
as §1

Where [2] appears, read: Aβ40, 24 h incubation, read-out: BACE1 Cell IC50.

The structures appear in SMILES notation. Where two headings read alike, the source gives them in different places.

Sequence of Recombinant CatD (P07339 65-412): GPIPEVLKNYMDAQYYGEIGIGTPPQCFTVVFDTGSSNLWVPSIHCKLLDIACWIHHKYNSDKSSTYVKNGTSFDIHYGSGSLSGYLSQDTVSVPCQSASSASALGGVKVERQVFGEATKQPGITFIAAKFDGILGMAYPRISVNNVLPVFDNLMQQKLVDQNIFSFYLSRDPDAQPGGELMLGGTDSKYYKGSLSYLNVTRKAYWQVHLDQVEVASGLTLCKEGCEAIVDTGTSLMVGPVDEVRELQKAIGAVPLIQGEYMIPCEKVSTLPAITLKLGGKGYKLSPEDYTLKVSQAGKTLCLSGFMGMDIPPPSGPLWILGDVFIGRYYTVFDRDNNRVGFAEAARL
Sequence of human recombinant BACE2 (Q9Y5Z0 63-518): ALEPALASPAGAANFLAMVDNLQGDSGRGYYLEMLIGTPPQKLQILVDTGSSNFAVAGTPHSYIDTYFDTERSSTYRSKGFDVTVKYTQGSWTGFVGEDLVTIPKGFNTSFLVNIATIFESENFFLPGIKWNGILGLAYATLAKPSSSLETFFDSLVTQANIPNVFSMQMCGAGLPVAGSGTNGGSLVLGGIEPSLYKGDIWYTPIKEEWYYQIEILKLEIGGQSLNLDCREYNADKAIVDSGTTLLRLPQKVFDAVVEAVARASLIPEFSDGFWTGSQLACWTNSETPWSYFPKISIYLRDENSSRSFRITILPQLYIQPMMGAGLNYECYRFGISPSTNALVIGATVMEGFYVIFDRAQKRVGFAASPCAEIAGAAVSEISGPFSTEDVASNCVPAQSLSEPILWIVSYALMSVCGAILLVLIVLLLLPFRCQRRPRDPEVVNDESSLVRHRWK
Sequence of human recombinant BACE1 (P56817 46-501): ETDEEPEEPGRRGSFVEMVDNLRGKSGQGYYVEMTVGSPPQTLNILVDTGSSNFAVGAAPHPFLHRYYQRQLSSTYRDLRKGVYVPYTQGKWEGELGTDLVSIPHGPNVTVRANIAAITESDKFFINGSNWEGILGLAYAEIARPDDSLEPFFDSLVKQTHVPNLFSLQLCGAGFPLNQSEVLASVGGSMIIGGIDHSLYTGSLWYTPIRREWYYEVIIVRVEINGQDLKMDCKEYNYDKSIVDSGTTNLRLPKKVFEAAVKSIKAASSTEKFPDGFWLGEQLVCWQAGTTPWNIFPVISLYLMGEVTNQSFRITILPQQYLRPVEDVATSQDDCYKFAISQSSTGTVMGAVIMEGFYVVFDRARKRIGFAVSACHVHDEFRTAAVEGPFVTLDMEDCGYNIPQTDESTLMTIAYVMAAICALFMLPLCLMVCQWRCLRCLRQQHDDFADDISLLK

What is called IC50 is the point on the concentration scale where inhibition reaches its midpoint. Regarding `N#Cc1ccc(/C(F)=C/c2ccc(F)c([C@@]34CO[C@@H](C(F)(F)F)[C@@H]3COC(N)=N4)c2)nc1` (racemic) [Example 141, 6-((Z)-2-(3-((4aR,5S,7aS)-2-amino-5-(trifluoromethyl)-4a,5,7,7a-tetrahydro-4H-furo[3,4-d][1,3]oxazin-7a-yl)-4-fluorophenyl)-1-fluorovinyl)nicotinonitrile and 6-((Z)-2-(3-((4aS,5R,7aR)-2-amino-5-(trifluoromethyl)-4a,5,7,7a-tetrahydro-4H-furo[3,4-d][1,3]oxazin-7a-yl)-4-fluorophenyl)-1-fluorovinyl)nicotinonitrile], the IC50 in assay [1] (setting [2]) is 0.161 µM; at human recombinant BACE1, 86.2 nM; at Recombinant CatD, 237000 nM; at human recombinant BACE2 it was 9720 nM.

With `N#Cc1ccc(/C(F)=C/c2ccc(F)c([C@]34CO[C@H](C(F)(F)F)[C@H]3COC(N)=N4)c2)nc1` (single isomer, unassigned) [Example 142], the IC50 in assay [1] (setting [2]) was 0.0588 µM; at human recombinant BACE1, 37.2 nM; at Recombinant CatD it was more than 400000 nM; at human recombinant BACE2, 3540 nM.

Regarding `N#Cc1ccc(/C(F)=C/c2ccc(F)c([C@@]34CO[C@@H](C(F)(F)F)[C@@H]3COC(N)=N4)c2)nc1` (single isomer, unassigned) [Example 143], the IC50 is 53.5 µM in assay [1] (setting [2]), 9010 nM on human recombinant BACE1, 95600 nM on Recombinant CatD and 140000 nM at human recombinant BACE2.

With `C#CCOc1cnc(/C(F)=C/c2ccc(F)c([C@]34CN(c5ncc(F)cn5)C[C@H]3CSC(N)=N4)c2)cn1` (stereo in doubt) [Example 109, (4aR,7aS)-7a-(2-fluoro-5-((Z)-2-fluoro-2-(5-(prop-2-yn-1-yloxy)pyrazin-2-yl)vinyl)phenyl)-6-(5-fluoropyrimidin-2-yl)-4,4a,5,6,7,7a-hexahydropyrrolo[3,4-d][1,3]thiazin-2-amine], the IC50 in assay [1] (setting [2]) amounted to 0.000311 µM; at human recombinant BACE1, 0.149 nM; on Recombinant CatD, 7600 nM; on human recombinant BACE2, 5.49 nM.

Take `Cc1noc(COc2cnc(/C(F)=C/c3ccc(F)c([C@]45CN(c6ncc(F)cn6)C[C@H]4CSC(N)=N5)c3)cn2)n1` (stereo in doubt) [Example 110, (4aR,7aS)-7a-(2-fluoro-5-((Z)-2-fluoro-2-(5-((3-methyl-1,2,4-oxadiazol-5-yl)methoxy)pyrazin-2-yl)vinyl)phenyl)-6-(5-fluoropyrimidin-2-yl)-4,4a,5,6,7,7a-hexahydropyrrolo[3,4-d][1,3]thiazin-2-amine]: the IC50 in assay [1] (setting [2]) came to 0.00411 µM; on human recombinant BACE1, 1.56 nM; at Recombinant CatD, 4500 nM; on human recombinant BACE2 it was 85.5 nM.

In the case of `NC1=N[C@]2(c3cc(/C=C(\F)c4ccc(Cl)cn4)ccc3F)CN(c3ncc(F)cn3)C[C@@H]2CS1` [Example 100, (4aS,7aR)-7a-(5-((Z)-2-(5-chloropyridin-2-yl)-2-fluorovinyl)-2-fluorophenyl)-6-(5-fluoropyrimidin-2-yl)-4,4a,5,6,7,7a-hexahydropyrrolo[3,4-d][1,3]thiazin-2-amine], the IC50 in assay [1] (24 h, read-out: BACE1 Cell IC50 (μM)) worked out at 1.25 µM; on human recombinant BACE1, 847 nM; at Recombinant CatD it was 544000 nM; at human recombinant BACE2 it was 495 nM.

For the compound `NC1=N[C@@]2(c3cc(/C=C(\F)c4ccc(Cl)cn4)ccc3F)CN(c3ncc(F)cn3)C[C@H]2CS1` [Example 101, (4aR,7aS)-7a-(5-((Z)-2-(5-chloropyridin-2-yl)-2-fluorovinyl)-2-fluorophenyl)-6-(5-fluoropyrimidin-2-yl)-4,4a,5,6,7,7a-hexahydropyrrolo[3,4-d][1,3]thiazin-2-amine], the IC50 in assay [1] (setting [2]) came to 0.00194 µM; at human recombinant BACE1, 1.84 nM; at Recombinant CatD it was 49100 nM; at human recombinant BACE2, 1.03 nM.

For `N#Cc1ccc(/C(F)=C/c2ccc(F)c([C@]34CN(c5ncc(F)cn5)C[C@H]3CSC(N)=N4)c2)nc1` [Example 102, 6-((Z)-2-(3-((4aR,7aS)-2-amino-6-(5-fluoropyrimidin-2-yl)-4,4a,5,6,7,7a-hexahydropyrrolo[3,4-d][1,3]thiazin-7a-yl)-4-fluorophenyl)-1-fluorovinyl)nicotinonitrile], the IC50 in assay [1] (setting [2]) was 0.000682 µM; on human recombinant BACE1, 0.241 nM; at Recombinant CatD, 118000 nM; at human recombinant BACE2 it was 3.08 nM.

Take `N#Cc1ccc(/C(F)=C/c2ccc(F)c([C@@]34CN(c5ncc(F)cn5)C[C@@H]3CSC(N)=N4)c2)nc1` [Example 103, 6-((Z)-2-(3-((4aS,7aR)-2-amino-6-(5-fluoropyrimidin-2-yl)-4,4a,5,6,7,7a-hexahydropyrrolo[3,4-d][1,3]thiazin-7a-yl)-4-fluorophenyl)-1-fluorovinyl)nicotinonitrile]: the IC50 stood at 0.00545 µM in assay [1] (setting [2]), 1.86 nM at human recombinant BACE1, 246000 nM on Recombinant CatD and 27.2 nM on human recombinant BACE2.

With `NC1=N[C@]2(c3cc(/C=C(\F)c4ccc(Cl)cn4)ccc3F)COC[C@@H]2CS1` [Example 104, (4aR,7aR)-7a-(5-((Z)-2-(5-chloropyridin-2-yl)-2-fluorovinyl)-2-fluorophenyl)-4a,5,7,7a-tetrahydro-4H-furo[3,4-d][1,3]thiazin-2-amine], the IC50 in assay [1] (setting [2]) is 2.26 µM; on human recombinant BACE1, 804 nM; on Recombinant CatD, 654000 nM; at human recombinant BACE2, 7480 nM.

`NC1=N[C@@]2(c3cc(/C=C(\F)c4ccc(Cl)cn4)ccc3F)COC[C@H]2CS1` [Example 105, (4aS,7aS)-7a-(5-((Z)-2-(5-chloropyridin-2-yl)-2-fluorovinyl)-2-fluorophenyl)-4a,5,7,7a-tetrahydro-4H-furo[3,4-d][1,3]thiazin-2-amine]: the IC50 in assay [1] (setting [2]) was found to be 0.129 µM; at human recombinant BACE1 it was 64.4 nM; at Recombinant CatD it was 181000 nM; at human recombinant BACE2 it was 56.9 nM.

Consider `N#Cc1ccc(/C(F)=C/c2ccc(F)c([C@@]34COC[C@@H]3CSC(N)=N4)c2)nc1` [Example 106, 6-((Z)-2-(3-((4aR,7aR)-2-amino-4a,5,7,7a-tetrahydro-4H-furo[3,4-d][1,3]thiazin-7a-yl)-4-fluorophenyl)-1-fluorovinyl)nicotinonitrile], for which the IC50 was found to be 0.985 µM in assay [1] (setting [2]), 502 nM on human recombinant BACE1, 815000 nM on Recombinant CatD and 6390 nM at human recombinant BACE2.

For `N#Cc1ccc(/C(F)=C/c2ccc(F)c([C@]34COC[C@H]3CSC(N)=N4)c2)nc1` [Example 107, 6-((Z)-2-(3-((4aS,7aS)-2-amino-4a,5,7,7a-tetrahydro-4H-furo[3,4-d][1,3]thiazin-7a-yl)-4-fluorophenyl)-1-fluorovinyl)nicotinonitrile], the IC50 in assay [1] (setting [2]) was 0.041 µM; at human recombinant BACE1, 11.7 nM; at Recombinant CatD it was more than 400000 nM; at human recombinant BACE2, 279 nM.

For the compound `COc1cnc(/C(F)=C/c2ccc(F)c([C@]34CN(c5ncc(F)cn5)C[C@H]3CSC(N)=N4)c2)cn1` [Example 108, (4aR,7aS)-7a-(2-fluoro-5-((Z)-2-fluoro-2-(5-methoxypyrazin-2-yl)vinyl)phenyl)-6-(5-fluoropyrimidin-2-yl)-4,4a,5,6,7,7a-hexahydropyrrolo[3,4-d][1,3]thiazin-2-amine], the IC50 came out at 0.016 µM in assay [1] (setting [2]), 2.71 nM on human recombinant BACE1, 14800 nM at Recombinant CatD and 34 nM on human recombinant BACE2.
